Measured values from US5288751A, “[(Substituted) phenyalkyl]furylalkynyl-and [substituted) phenyalkyl] thienylalkynyl-N-hydroxyurea inhibitors or leukotriene biosynthesis” (Abbott Laboratories, priority 1992, dated 1994).

Experiments:
[1] = tested on: Stimulated LTB4 Formation in Human Whole Blood; assay: Calcium ionophore (A23187)-induced LTB4 biosynthesis in human whole blood (in vitro leukotriene biosynthesis inhibition); type: cell-based; conditions: human heparinized whole blood, A23187 8.3 μM, 30 minutes; for IC50: 15 min preincubation at 37° C.; for % inhibition of stimulated LTB4 formation in human whole blood: test concentration not stated
Procedure: Inhibition of leukotriene biosynthesis was evaluated in an assay, involving calcium ionophore-induced LTB4 biosynthesis expressed human whole blood. Human heparinized whole blood was preincubated with test compounds or vehicle for 15 min at 37° C. followed by calcium ionophore A23187 challenge (final concentration of 8.3 μM) and the reaction terminated after 30 minutes by adding two volumes of methanol containing prostaglandin B2 as an internal recovery standard. The methanol extract was analyzed for LTB4 using a commercially available radioimmunoassay.
In Vitro Inhibitory Potencies Against Stimulated LTB4 Formation

[2] = tested on: biosynthesis of leukotrienes (peritoneal fluid leukotriene levels); assay: Inhibition of leukotriene biosynthesis in vivo, rat peritoneal anaphylaxis model, oral administration; conditions: single 30 μmol/kg oral dose, gavage one hour prior to antigen challenge, 15 minutes after challenge
Procedure: Inhibition of the biosynthesis of leuktrienes in vivo after oral administration of compound was determined using a rat peritoneal anaphylaxis model in a similar manner as that described by Young and coworkers (Young, P. R.; Dyer, R. D.; Carter, G. W., Fed. Proc., Fed. Am. Soc. Exp. Biol. 1985, 44: 1185). In this model rats were injected intraperitoneally (ip) with rabbit antibody to bovine serum albumin (BSA) and three hours later injected ip with BSA to induce an antigen-antibody response. Rats were sacrificed 15 minutes after this challenge and the peritoneal fluids were collected and analyzed for leukotriene levels. Test compounds were administered by gavage one hour prior to the antigen challenge. Percent inhibition values were determined by comparing the treatment group to the mean of the control group. Compounds of this invention prevent the formation of leukotrienes in this model after oral administration in a range of 1-200 μmol/kg.

Row | SMILES | IC50 [1] [nM] | % inhibition of stimulated LTB4 formation in human whole blood [1] [%] | % inhibition of leukotriene formation in vivo [2] [%]
1 | Cc1ccc(/C=C/c2ccc(C#CC(C)N(O)C(N)=O)o2)cc1 (stereo not drawn) [Example 9, N-Hydroxy-N-[4-(5-{2-[5-methylphenyl]ethenyl}fur-2-yl)-1-methyl-2-propynyl]urea] | 300 | – | –
2 | CC(C#Cc1ccc(C(=O)c2ccc(F)cc2)o1)N(O)C(N)=O (stereo not drawn) [Example 2] | – | 72 | –
3 | CC(C#Cc1ccc(/C=C/c2ccc(F)cc2)s1)N(O)C(N)=O (stereo not drawn) [Example 8] | – | 62 | –
4 | CC(C#Cc1ccc(/C=C/c2ccccn2)o1)N(O)C(N)=O (stereo not drawn) [Example 7, N-Hydroxy-N-[4-(5-{2-[2-pyridyl]ethenyl}fur-2-yl)-1-methyl-2-propynyl]urea] | 350 | – | –
5 | CC(C#Cc1ccc(/C=C/c2cccnc2)o1)N(O)C(N)=O (stereo not drawn) [Example 4, N-Hydroxy-N-[4-(5-{2-[3-pyridyl]ethenyl}fur-2-yl)-1-methyl-2-propynyl]urea] | – | 39 | –
6 | CC(C#Cc1ccc(/C=C/c2ccccc2)o1)N(O)C(N)=O (stereo not drawn) [Example 6, N-Hydroxy-N-[4-(5-{2-phenylethenyl}fur-2-yl)-1-methyl-2-propynyl]urea] | – | 40 | –

Second part, led by results:

Row | IC50 [1] [nM] | SMILES | % inhibition of stimulated LTB4 formation in human whole blood [1] [%] | % inhibition of leukotriene formation in vivo [2] [%]
7 | 620 | CC(C#Cc1ccc(/C=C/c2ccc(F)cc2)o1)N(O)C(N)=O (stereo not drawn) [Example 5, N-[4-(5-{2-[4-Fluorophenyl]ethenyl}fur-2-yl)-1-methyl-2-propynyl]-N-hydroxyurea] | – | –
8 | 70 | C[C@H](C#Cc1ccc(Cc2ccc(F)cc2)s1)N(O)C(N)=O [Example 13, (R)-N-{3-[5-(4-Fluorophenylmethyl)-2-thienyl]-1-methyl-2-propynyl}-N-hydroxyurea] | – | –
9 | 70 | CC(C#Cc1ccc(Cc2ccc(F)cc2)s1)N(O)C(N)=O (stereo not drawn) [Example 12, N-{3-[5-(4-Fluorophenylmethyl)-2-thienyl]-1-methyl-2-propynyl}-N-hydroxyurea] | – | 72
10 | 60 | CC(C#Cc1ccc(Cc2ccc(F)cc2)o1)N(O)C(N)=O (stereo not drawn) [Example 1, N-{3-[5-(4-Fluorophenylmethyl)fur-2-yl]-1-methyl-2-propynyl}-N-hydroxyurea] | – | 68
